According to patent US20050096331A1, “Novel compounds and their use in medicine process for their preparation and pharmaceutical compositions containing them” (priority 2001, published 2005):

Tests used:
hPPARα = biological target: T1, hPPARα (Homo sapiens, UniProt Q07869); test: Determination of hPPARα activity (GAL4 luciferase reporter transactivation); type: cell-based; settings: compound at 50 μM; luciferase activity in transfected HEK-293 cells
T1 construct: expressed in transfected cells; host or cells: HEK-293
T1 sequence (Q07869 239-466 limits assumed): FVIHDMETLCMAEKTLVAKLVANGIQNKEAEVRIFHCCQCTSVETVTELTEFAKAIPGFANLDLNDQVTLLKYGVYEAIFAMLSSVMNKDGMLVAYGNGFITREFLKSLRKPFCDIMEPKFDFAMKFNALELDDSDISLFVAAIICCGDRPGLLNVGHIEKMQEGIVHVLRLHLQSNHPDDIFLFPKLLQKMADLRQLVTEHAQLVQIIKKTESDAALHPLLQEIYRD
Protocol: Ligand binding domain of hPPARα was fused to DNA binding domain of Yeast transcription factor GAL4 in eucaryotic expression vector. Using superfect (Qiagen, Germany) as transfecting reagent HEK-293 cells were transfected with this plasmid and a reporter plasmid harboring the luciferase gene driven by a GAL4 specific promoter. Compound was added at different concentrations after 42 hrs of transfection and incubated overnight. Luciferase activity as a function of compound binding/activation capacity of PPARα was measured using Packard Luclite kit (Packard, USA) in Top Count (Ivan Sadowski, Brendan Bell, Peter Broag and Melvyn Hollis. Gene 1992, 118: 137-141; Superfect Transfection Reagent Handbook. February 1997. Qiagen, Germany).

hPPARγ1 = biological target: T2, hPPARγ1 (Homo sapiens, UniProt P37231); test: Determination of hPPARγ activity (GAL4 luciferase reporter transactivation); type: cell-based; settings: compound at 1 μM; luciferase activity in transfected HEK-293 cells
T2 construct: expressed in transfected cells; host or cells: HEK-293
T2 sequence (P37231 238-503 limits assumed): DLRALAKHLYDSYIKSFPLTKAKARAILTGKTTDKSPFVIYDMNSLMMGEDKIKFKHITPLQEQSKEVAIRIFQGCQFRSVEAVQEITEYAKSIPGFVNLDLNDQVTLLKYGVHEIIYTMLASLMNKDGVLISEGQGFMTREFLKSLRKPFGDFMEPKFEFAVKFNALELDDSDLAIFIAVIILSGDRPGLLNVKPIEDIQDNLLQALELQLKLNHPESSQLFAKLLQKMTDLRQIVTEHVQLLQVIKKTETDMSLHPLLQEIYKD
Protocol: Ligand binding domain of hPPARγ1 was fused to DNA binding domain of Yeast transcription factor GAL4 in eucaryotic expression vector. Using lipofectamine (Gibco BRL, USA) as transfecting reagent HEK-293 cells were transfected with this plasmid and a reporter plasmid harboring the luciferase gene driven by a GAL4 specific promoter. Compound was added at 1 μM concentration after 48 hrs of transfection and incubated overnight. Luciferase activity as a function of drug binding/activation capacity of PPARγ1 was measured using Packard Luclite kit (Packard, USA) in Packard Top Count (Ivan Sadowski, Brendan Bell, Peter Broag and Melvyn Hollis. Gene 1992, 118: 137-141; Guide to Eukaryotic Transfections with Cationic Lipid Reagents. Life Technologies, GIBCO BRL, USA).

C57BL/KsJ-db/db mice = test: Efficacy in genetic models: blood sugar and triglyceride lowering in db/db mice; type: in vivo, mouse
Source text: Mutation in colonies of laboratory animals and different sensitivities to dietary regimens have made the development of animal models with non-insulin dependent diabetes and hyperlipidemia associated with obesity and insulin resistance possible. Genetic models such as db/db and ob/ob (Diabetes, (1982) 31(1): 1-6) mice and zucker fa/fa rats have been developed by the various laboratories for understanding the pathophysiology of disease and testing the efficacy of new antidiabetic compounds (Diabetes, (1983) 32: 830-838; Annu. Rep. Sankyo Res. Lab. (1994). 46: 1-57). The homozygous animals, C57 BL/KsJ-db/db mice developed by Jackson Laboratory, US, are obese, hyperglycemic, hyperinsulinemic and insulin resistant (J. Clin. Invest., (1990) 85: 962-967), whereas heterozygous are lean and normoglycemic. In db/db model, mouse progressively develops insulinopenia with age, a feature commonly observed in late stages of human type II diabetes when blood sugar levels are insufficiently controlled. The state of pancreas and its course vary according to the models. Since this model resembles that of type II diabetes mellitus, the compounds of the present invention were tested for blood sugar and triglycerides lowering activities.
Male C57BL/KsJ-db/db mice of 8 to 14 weeks age, having body weight range of 35 to 60 grams, bred at Dr. Reddy's Research Foundation (DRF) animal house, were used in the experiment The mice were provided with standard feed (National Institute of Nutrition (NIN), Hyderabad, India) and acidified water, ad libitum. The animals having more tan 350 mg/dl blood sugar were used for testing. The number of animals in each group was 4.
Test compounds were suspended on 0.25% carboxymethyl cellulose and administered to test group at a dose of 0.1 mg to 30 mg/kg through oral gavage daily for 6 days. The control group received vehicle (dose 10 ml/kg). On 6th day the blood samples were collected one hour after administration of test compounds/vehicle for assessing the biological activity.
The random blood sugar and triglyceride levels were measured by collecting blood (100 μl) through orbital sinus, using heparinised capillary in tubes containing EDTA which was centrifuged to obtain plasma. The plasma glucose and triglyceride levels were measured spectrometrically, by glucose oxidase and glycerol-3-PO4 oxidase/peroxidase enzyme (Dr. Reddy's Lab. Diagnostic Division Kits, Hyderabad, India) methods respectively.
The blood sugar and triglycerides lowering activities of the test compound was calculated according to the formula.
(§1) • 1. Percent reduction in Blood sugar/triglycerides/total cholesterol were calculated according to the formula: [formula] • OC=Zero day control group value • OT=Zero day treated group value • TC=Test day control group value • TT=Test day treated group value • 2. LDL and VLDL cholesterol levels were calculated according to the formula: [formula] [formula]

Swiss albino mice = test: Plasma triglyceride and total cholesterol lowering activity in Swiss albino mice and Guinea pigs; type: in vivo, mouse; settings: 6 days
Protocol: Male Swiss albino mice (SAM) and male Guinea pigs were obtained from NIN and housed in DRF animal house. All these animals were maintained under 12 hour light and dark cycle at 25±1° C. Animals were given standard laboratory chow (NIN, Hyderabad, India) and water, ad libitum. SAM of 20-25 g body weight range and Guinea pigs of 500-700 g body weight range were used (Oliver, P., Plancke, M. O., Marzin, D., Clavey, V., Sauzieres, J and Fruchart, J. C. Effects of fenofibrate, gemfibrozil and nicotinic acid on plasma lipoprotein levels in normal and hyperlipidemic mice. Atherosclerosis. 1988. 70: 107-114).
The test compounds were administered orally to Swiss albino mice at 0.3 to 30 mg/kg/day dose for 6 days. Control mice were treated with vehicle (0.25% Carboxymethylcellulose; dose 10 ml/kg). The test compounds were administered orally to Guinea pigs at […] dose for 6 days. Control animals were treated with vehicle (0.25% Carboxymethylcellulose; dose 5 ml/kg).
The blood samples were collected in fed state 1 hour after drug administration on 0 and 6 day of treatment. The blood was collected from the retro-orbital sinus through heparinised capillary in EDTA containing tubes. After centrifugation, plasma sample was separated for triglyceride and total cholesterol (Wieland, O. Methods of Enzymatic analysis. Bergermeyer, H. O., Ed., 1963. 211-214; Trinder, P. Ann. Clin. Biochem 1969, 6: 24-27). Measurement of plasma triglyceride, total cholesterol and HDL were done using commercial kits (Dr. Reddy's Diagnostic Division, Hyderabad, India).
as §1

[1] = 10 mg/kg oral gavage daily for 6 days
[2] = 3 mg/kg oral gavage daily for 6 days

SMILES: CCCc1nn(C)c2c(OCCOc3ccc(C[C@H](OCC)C(=O)O)cc3)nc(CC)nc12 [Example 4b, 2(S)-2-Ethoxy-3-[4-{2-(5-ethyl-1-methyl-3-propyl-1H-pyrazolo[4,3-d]pyrimidin-7-yloxy)ethoxy}phenyl]propanoic Acid]
- PPARα (hPPARα): 5.1
- PPARγ (hPPARγ1): 6.9
- Reduction in Blood Glucose Level (%) (C57BL/KsJ-db/db mice; [1]): 56%
- Triglyceride Lowering (%) (C57BL/KsJ-db/db mice; [1]): 17%

SMILES: CCCc1nn(C)c2c(OCCOc3ccc(CC(OCC)C(=O)OCC)cc3)nc(C)nc12 (stereo in doubt) [Example 5, Ethyl 2(S)-3-[4-{2-1,5-dimethyl-3-propyl-1H-pyrazolo[4,3-dipyrimidin-7-yloxy)ethoxy}phenyl]-2-ethoxypropanoate]
- Reduction in Blood Glucose Level (%) (C57BL/KsJ-db/db mice; [2]): 61%
- Triglyceride Lowering (%) (C57BL/KsJ-db/db mice; [2]): 51%

SMILES: CCCc1nn(C)c2c(OCCOc3ccc(CC(OCC)C(=O)OCC)cc3)nc(-c3ccccc3)nc12 (stereo not shown) [Example 7, Ethyl 2-ethoxy-3-[4-{2-(1-methyl-5-phenyl-3-propyl-1H-pyrazolo-[4,3-d]-pyrimidin-7-yloxy)ethoxy}phenyl]propanoate]
- Triglyceride Lowering (%) (Swiss albino mice; 3 mg/kg orally): 43%

SMILES: CCCc1nn(C)c2c(OCCOc3ccc(CC(OCC)C(=O)O)cc3)nc(-c3ccccc3)nc12 (stereo not shown) [Example 8, 3-[4-{2-(1-Methyl-5-phenyl-3-propyl-1H-pyrazolo-14,3-d]pyrimidin-7-yloxy)ethoxy}phenyl-2-ethoxypropanoic Acid]
- Triglyceride Lowering (%) (Swiss albino mice; 10 mg/kg orally): 61%

SMILES: CCCc1nn(C)c2c(OCCOc3ccc(C[C@H](OCC)C(=O)OC)cc3)nc(CC)nc12 [Example 4a, Methyl 2(S)-2-ethoxy-3-[4-{2-(5-ethyl-1-methyl-3-propyl-1H-pyrazolo [4,3-d]-pyrimidin-7-yloxy)ethoxy}phenyl]propanoate]
- Reduction in Blood Glucose Level (%) (C57BL/KsJ-db/db mice; [1]): 48%
- Triglyceride Lowering (%) (C57BL/KsJ-db/db mice; [1]): 69%

SMILES: CCCCCCCN(C(=O)COc1nc(CC)nc2c(CCC)nn(C)c12)c1ccc(SC(CCC)C(=O)O)cc1 (stereo not shown) [Example 2, 2-[4-(5-Ethyl-1-methyl-3-propyl-1H-pyrazolo[4,3-d]pyrimidin-7-yloxymethyl-(heptyl)carboxamido)phenylsulfanyl]pentanoic Acid]
- PPARα (hPPARα): 2.7
- PPARγ (hPPARγ1): 1.4

SMILES: CCCc1nn(C)c2c(OCCOc3ccc(C[C@H](OCC)C(=O)O)cc3)nc(C3CC3)nc12 [Example 10, (2S)-3-[4-{2-(5-Cyclopropyl-1-methyl-3-propyl-1H-pyrazolo[4,3-d]pyrimidin-7-yloxy)ethoxy}phenyl]-2-ethoxypropanoic Acid]
- Triglyceride Lowering (%) (Swiss albino mice; 3 mg/kg orally): 42%
